# Measurements as given in US11607414B2, “Small molecule inhibitors of EGFR and PI3K” (The Regents of the University of Michigan, priority 2014, dated 2023).
# How the values were obtained:
# EGFR = EGFR (Homo sapiens, UniProt P00533); assay: Z'-LYTE biochemical kinase assay, EGFR
# Protocol: Various compounds were tested for their ability to inhibit EGFR and PIK3CA. The assays determining inhibitions are given in Example 2 Assays-Z′-LYTE® and ADAPTA.
# Assays: The Z′-LYTE® biochemical assay employs a fluorescence-based, coupled-enzyme format and is based on the differential sensitivity of phosphorylated and non-phosphorylated peptides to proteolytic cleavage (FIG. 6). The peptide substrate is labeled with two fluorophores—one at each end— that make up a FRET pair. In the primary reaction, the kinase transfers the gamma-phosphate of ATP to a single tyrosine, serine or threonine residue in a synthetic FRET-peptide. […] A ratiometric method, which calculates the ratio (the Emission Ratio) of donor emission to acceptor emission after excitation of the donor fluorophore at 400 nm, is used to quantitate reaction progress.
# A significant benefit of this ratiometric method for quantitating reaction progress is the elimination of well-to-well variations in FRET-peptide concentration and signal intensities. […]
# Both cleaved and uncleaved FRET-peptides contribute to the fluorescence signals and therefore to the Emission Ratio. The extent of phosphorylation of the FRET-peptide can be calculated from the Emission Ratio. […]
# Bar-coded Corning, low volume NBS, black 384-well plate (Corning Cat. 4514) 1. […] Read on fluorescence plate reader and analyze the data.
# [1] = tested on: pAKT and pEGFR in HCT-116 cells; assay: Effect on pAKT and pEGFR in HCT-116 cells (Western blot); format: cell-based
# Protocol: [50 mmol/L Tris-HCl (pH 8.0), 150 mmol/L NaCl, 1% NP40, 0.5% Na-deoxycholate, 0.1% SDS, containing protease (P8340, Sigma, St. Louis, Mo.) and phosphatase (P5726, Sigma) inhibitor cocktails]. The soluble protein concentration was determined by micro-bovine serum albumin assay (Pierce, Rockford, Ill.). Protein immunodetection was done by electrophoretic transfer of SDS-PAGE separated proteins to nitrocellulose, incubation with antibody, and chemiluminescent second step detection (PicoWest, Pierce). The antibodies included EGFR, phospho-EGFR (Y1068), phospho-p42/p44, phospho-Akt (473), phospho-Akt (308), total Akt, phosho-S6 (235/236), and total S6. All antibodies were obtained from Cell Signaling Technologies (Danvers, Mass.). […]
# Cell extracts were prepared by detergent lysis [25 mmol/L Tris-HCl (pH 7.6), 150 mmol/L NaCl, 1% Nonidet P-40, 10% glycerol, 1 mM EDTA, 1 mmol/L dithiothreitol (DTT), and protease and phosphatase inhibitors, rocked for 30 minutes at 4° C., and centrifuged at 14,000 rpm for 20 min at 4° C. Protein concentration was determined by BioRad Protein Assays and lysates were subsequently subjected to SDS gel electrophoresis. […] After incubation with either anti-rabbit HRP or anti-mouse HRP linked secondary antibody (Jackson ImmunoResearch Laboratories, Inc.), proteins were detected using chemiluminescence (GE Healthcare).
# [2] = tested on: phosphorylation of EGFR in HCT-116 tumors; assay: In vivo pharmacodynamics in subcutaneous HCT-116 tumors, pEGFR; conditions: single oral dose 100 mg/kg, two hours post-dosing
# Source text: However, additional synthesis of MOL-162 is needed to allow a full pharmacodynamic time course study to be carried out to determine the maximal degree of target inhibition of both targets after single and repeated daily dosing.
# Sequence of EGFR (P00533 25-1210): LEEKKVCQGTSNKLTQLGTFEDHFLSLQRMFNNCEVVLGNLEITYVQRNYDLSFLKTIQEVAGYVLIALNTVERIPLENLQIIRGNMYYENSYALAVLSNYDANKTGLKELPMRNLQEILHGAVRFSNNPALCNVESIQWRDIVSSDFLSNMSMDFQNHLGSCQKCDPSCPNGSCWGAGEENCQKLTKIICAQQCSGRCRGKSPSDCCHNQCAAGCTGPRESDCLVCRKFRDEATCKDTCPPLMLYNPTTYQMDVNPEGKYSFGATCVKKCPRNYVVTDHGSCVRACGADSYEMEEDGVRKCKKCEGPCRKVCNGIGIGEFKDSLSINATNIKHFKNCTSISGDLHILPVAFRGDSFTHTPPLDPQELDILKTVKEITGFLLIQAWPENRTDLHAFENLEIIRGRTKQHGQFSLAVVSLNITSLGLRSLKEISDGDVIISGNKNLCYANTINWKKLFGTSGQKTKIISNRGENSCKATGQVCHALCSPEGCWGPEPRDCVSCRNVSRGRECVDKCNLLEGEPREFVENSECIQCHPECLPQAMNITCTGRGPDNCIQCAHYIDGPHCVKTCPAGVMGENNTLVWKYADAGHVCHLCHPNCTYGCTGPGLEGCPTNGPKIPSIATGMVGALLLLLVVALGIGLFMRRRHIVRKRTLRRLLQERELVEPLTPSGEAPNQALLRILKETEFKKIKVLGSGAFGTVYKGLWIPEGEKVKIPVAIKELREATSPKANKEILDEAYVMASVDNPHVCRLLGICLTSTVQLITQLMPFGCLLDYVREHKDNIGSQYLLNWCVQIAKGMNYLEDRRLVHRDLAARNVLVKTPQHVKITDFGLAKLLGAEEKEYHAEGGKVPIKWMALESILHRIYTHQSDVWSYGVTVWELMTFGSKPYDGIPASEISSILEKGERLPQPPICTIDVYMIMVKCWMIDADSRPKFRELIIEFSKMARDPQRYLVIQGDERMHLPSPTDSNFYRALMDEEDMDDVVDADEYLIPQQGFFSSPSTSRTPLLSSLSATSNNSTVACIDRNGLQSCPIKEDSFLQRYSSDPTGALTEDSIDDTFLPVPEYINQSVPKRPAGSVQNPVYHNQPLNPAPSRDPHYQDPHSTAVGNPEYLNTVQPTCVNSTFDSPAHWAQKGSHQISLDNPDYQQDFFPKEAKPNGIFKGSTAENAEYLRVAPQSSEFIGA
compound,measurement,setting,value
"CS(=O)(=O)Nc1cncc(-c2ccc3ncnc(Nc4cccc(Cl)c4)c3c2)c1 [MOL-162, N-(5-(4-((3-chlorophenyl)amino)quinazolin-6-yl)pyridin-3-yl)methanesulfonamide]",inhibition of / potency against purified EGFR (in words),EGFR,potent dual inhibition
same,cellular modulation of EGFR and PI3K pathways,[1],cellular modulation of both pathways
same,phosphorylation of EGFR in tumors,[2],completely suppressed
